Reference: US20230265116A1, “DEGRADATION OF (EGFR) BY CONJUGATION OF EGFR INHIBITORS WITH E3 LIGASE LIGAND AND METHODS OF USE” (BEIGENE, LTD., priority 2020, published 2023)

Legend:
Type in all cases: cell-based
[1] = biological target: T1, EGFR WT (BaF3 WT cells) (Homo sapiens, UniProt P00533); test: EGFR degradation HTRF assay, BaF3 WT cells; conditions: BaF3 WT, 16h treatment; for Dmax: maximum percentage of degradation, read-out: WT Dmax (%)
T1 construct: expressed in transfected cells; host or cells: BaF3
Protocol: BaF3 WT(wild type), BaF3-LTC(L858R/T790M/C797S) and BaF3-DTC(Del19/T790M/C797S) cells are treated with compounds diluted in 0.2% DMSO cell culture medium and incubate for 16h, 37° C., 5% CO2, H1975-#36, H1975-#28, H1975-#23 and HCC827 cells are treated with compounds diluted in 0.2% DMSO cell culture medium on day 2, incubate for 16h, 37° C., 5% CO2.the final concentriation of compounds in all assay is start with 10 uM, 5-fold dilution, total 8 doses were included.
After 16h treatment, add HTRF lysis buffer to each well; seal the plate and incubate 1 hour at room temperature on a plate shaker; Once the cells are lysed, 16 μL of cell lysate are transferred to a PE 384-well HTRF detection plate; 4 μL of pre-mixed HTRF antibodies are added to each well; Cover the plate with a plate sealer, spin 1000 rpm for 1 min, Incubate overnight at room temperature; Read on BMG PheraStar with HTRF protocol (337 nm-665 nm-620 nm).
The inhibition (degradation) percentage of the compound was calculated by the following equation: Inhibition percentage of Compound=100-100×(Signal-low control)/(High control-low control), wherein signal=each test compound group
High control=Cell group with added DMSO and without compound, indicating microplate readings without EGFR degradation;
Dmax is the maximum percentage of inhibition (degradation).
The IC50 (DC50) value of a compound can be obtained by fitting the following equation
Y=Bottom+(TOP−Bottom)/(1+((IC50/X)^hillslope))
Wherein, X and Y are known values, and IC50, Hillslope, Top and Bottom are the parameters obtained by fitting with software. Y is the inhibition percentage (calculated from the equation), X is the concentration of the compound; IC50 is the concentration of the compound when the 50% inhibition is reached. The smaller the IC50 value is, the stronger the inhibitory ability of the compound is. Vice versa, the higher the IC50 value is, the weaker the inhibitory ability of the compound is; Hillslope represents the slope of the fitted curve, generally around 1*; Bottom represents the minimum value of the curve obtained by data fitting, which is generally 0%±20%; Top represents the maximum value of the curve obtained by data fitting, which is generally 100%±20%. The experimental data were fitted by calculating and analyzing with Dotmatics data analysis software.

[2] = system: EGFR Del19/T790M/C797S (BaF3-DTC cells); test: EGFR degradation HTRF assay, BaF3-DTC cells; conditions: 16h treatment; for DTC Dmax (%): maximum percentage of degradation; for DC50: read-out: DTC DC50
Method in brief: (§1)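 Cells treated 16 h at 37 °C, 5% CO2 in medium with 0.2% DMSO; top final concentration 10 uM, 5-fold dilution, 8 doses. Lysates read by HTRF (665/620 nm); degradation % versus DMSO high control, DC50 from four-parameter fit, Dmax as maximal degradation.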

[3] = biological target: T2, EGFR L858R/T790M/C797S (BaF3-LTC cells) (Homo sapiens, UniProt P00533, C797S/L858R/T790M); test: EGFR degradation HTRF assay, BaF3-LTC cells; conditions: BaF3-LTC, 16h treatment; for Dmax: maximum percentage of degradation, read-out: LTC Dmax (%); for DC50: read-out: LTC DC50
T2 construct: expressed in transfected cells; host or cells: BaF3
Method in brief: as §1

[4] = biological target: T3, EGFR L858R/T790M (H1975-clone #36, homozygous) (Homo sapiens, UniProt P00533, L858R/T790M); test: EGFR degradation HTRF assay, H1975-clone #36 cells; conditions: H1975 #36, 16h treatment; for Dmax: NCI-H1975, maximum percentage of degradation
T3 construct: designed to specifically target WT EGFR but preserve the L858R/T790M copy; host or cells: H1975-clone #36
Method in brief: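 H1975 clone #36, made homozygous for L858R/T790M EGFR by knockout of the WT allele, treated 16 h at 37 °C with compound in 0.2% DMSO medium. Eight doses from 10 uM, 5-fold dilutions. EGFR measured by HTRF in lysates. DC50 and Dmax fitted against DMSO controls.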

[5] = biological target: T4, EGFR (HCC827 cells) (Homo sapiens, UniProt P00533, DEL746-750); test: EGFR degradation HTRF assay, HCC827 cells; conditions: HCC827, 16h treatment; for Dmax: maximum percentage of degradation
T4 construct: endogenous in cells; host or cells: HCC827
Method in brief: as §1

T2 sequence (P00533 25-1210 T790M/C797S/L858R): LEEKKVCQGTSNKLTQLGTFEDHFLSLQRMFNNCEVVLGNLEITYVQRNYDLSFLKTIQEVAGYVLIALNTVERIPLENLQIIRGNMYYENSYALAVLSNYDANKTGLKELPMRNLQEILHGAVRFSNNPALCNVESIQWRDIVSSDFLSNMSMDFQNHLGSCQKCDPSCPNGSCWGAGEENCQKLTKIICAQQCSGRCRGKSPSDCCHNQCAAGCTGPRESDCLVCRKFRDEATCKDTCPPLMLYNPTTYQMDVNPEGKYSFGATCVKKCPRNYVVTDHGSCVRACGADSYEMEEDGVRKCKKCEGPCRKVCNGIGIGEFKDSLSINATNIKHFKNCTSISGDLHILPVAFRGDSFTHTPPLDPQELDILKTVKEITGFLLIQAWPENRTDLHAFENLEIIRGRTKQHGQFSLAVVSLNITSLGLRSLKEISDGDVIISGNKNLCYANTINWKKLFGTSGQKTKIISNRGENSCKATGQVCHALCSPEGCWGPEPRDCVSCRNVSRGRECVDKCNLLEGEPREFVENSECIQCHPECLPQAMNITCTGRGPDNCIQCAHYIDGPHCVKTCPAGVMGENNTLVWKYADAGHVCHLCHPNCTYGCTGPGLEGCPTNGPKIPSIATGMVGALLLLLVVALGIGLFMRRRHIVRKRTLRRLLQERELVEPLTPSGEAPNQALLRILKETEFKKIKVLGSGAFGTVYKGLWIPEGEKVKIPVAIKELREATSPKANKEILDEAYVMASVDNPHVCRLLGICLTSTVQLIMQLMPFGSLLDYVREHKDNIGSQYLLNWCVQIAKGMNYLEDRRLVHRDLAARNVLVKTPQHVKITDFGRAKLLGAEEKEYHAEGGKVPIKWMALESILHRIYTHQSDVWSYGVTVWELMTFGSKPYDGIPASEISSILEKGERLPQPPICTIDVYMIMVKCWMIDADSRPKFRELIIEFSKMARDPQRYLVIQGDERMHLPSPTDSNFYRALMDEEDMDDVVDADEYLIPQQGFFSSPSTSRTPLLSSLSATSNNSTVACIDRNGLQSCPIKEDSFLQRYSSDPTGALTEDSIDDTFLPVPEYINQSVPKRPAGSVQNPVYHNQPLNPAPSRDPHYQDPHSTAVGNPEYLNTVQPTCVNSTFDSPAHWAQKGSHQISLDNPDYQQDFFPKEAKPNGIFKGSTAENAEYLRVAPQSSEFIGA
T3 sequence (P00533 25-1210 T790M/L858R): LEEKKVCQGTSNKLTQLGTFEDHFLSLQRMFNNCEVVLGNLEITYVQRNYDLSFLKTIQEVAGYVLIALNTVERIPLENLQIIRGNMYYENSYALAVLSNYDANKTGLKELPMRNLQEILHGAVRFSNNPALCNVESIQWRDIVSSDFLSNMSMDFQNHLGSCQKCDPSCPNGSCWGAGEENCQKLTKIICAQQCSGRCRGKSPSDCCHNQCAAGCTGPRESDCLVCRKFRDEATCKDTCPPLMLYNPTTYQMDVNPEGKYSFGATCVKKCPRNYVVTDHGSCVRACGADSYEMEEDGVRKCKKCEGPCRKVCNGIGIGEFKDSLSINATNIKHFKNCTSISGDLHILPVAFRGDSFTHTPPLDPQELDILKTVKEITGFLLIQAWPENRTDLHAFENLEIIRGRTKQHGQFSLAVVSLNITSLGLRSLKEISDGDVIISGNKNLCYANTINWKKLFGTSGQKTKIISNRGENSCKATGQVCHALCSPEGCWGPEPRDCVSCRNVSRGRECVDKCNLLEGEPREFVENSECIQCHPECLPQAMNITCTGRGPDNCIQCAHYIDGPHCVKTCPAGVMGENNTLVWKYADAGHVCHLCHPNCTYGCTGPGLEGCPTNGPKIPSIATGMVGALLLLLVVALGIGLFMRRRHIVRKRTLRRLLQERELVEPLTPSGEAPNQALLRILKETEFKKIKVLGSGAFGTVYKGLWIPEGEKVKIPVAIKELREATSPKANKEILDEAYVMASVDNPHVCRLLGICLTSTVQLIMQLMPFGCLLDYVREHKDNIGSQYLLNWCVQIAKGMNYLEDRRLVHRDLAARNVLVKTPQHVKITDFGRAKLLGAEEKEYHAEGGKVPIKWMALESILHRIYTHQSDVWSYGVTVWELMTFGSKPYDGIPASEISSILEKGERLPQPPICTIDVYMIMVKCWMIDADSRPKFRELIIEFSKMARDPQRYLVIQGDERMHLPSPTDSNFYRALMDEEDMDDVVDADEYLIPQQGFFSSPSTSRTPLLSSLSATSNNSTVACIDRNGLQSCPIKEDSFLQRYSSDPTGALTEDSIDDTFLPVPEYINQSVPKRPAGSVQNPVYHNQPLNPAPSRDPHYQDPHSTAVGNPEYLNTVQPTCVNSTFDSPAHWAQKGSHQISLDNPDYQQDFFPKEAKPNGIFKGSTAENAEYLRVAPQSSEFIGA
T4 sequence (P00533 with tags, fused parts or gaps DEL746-750): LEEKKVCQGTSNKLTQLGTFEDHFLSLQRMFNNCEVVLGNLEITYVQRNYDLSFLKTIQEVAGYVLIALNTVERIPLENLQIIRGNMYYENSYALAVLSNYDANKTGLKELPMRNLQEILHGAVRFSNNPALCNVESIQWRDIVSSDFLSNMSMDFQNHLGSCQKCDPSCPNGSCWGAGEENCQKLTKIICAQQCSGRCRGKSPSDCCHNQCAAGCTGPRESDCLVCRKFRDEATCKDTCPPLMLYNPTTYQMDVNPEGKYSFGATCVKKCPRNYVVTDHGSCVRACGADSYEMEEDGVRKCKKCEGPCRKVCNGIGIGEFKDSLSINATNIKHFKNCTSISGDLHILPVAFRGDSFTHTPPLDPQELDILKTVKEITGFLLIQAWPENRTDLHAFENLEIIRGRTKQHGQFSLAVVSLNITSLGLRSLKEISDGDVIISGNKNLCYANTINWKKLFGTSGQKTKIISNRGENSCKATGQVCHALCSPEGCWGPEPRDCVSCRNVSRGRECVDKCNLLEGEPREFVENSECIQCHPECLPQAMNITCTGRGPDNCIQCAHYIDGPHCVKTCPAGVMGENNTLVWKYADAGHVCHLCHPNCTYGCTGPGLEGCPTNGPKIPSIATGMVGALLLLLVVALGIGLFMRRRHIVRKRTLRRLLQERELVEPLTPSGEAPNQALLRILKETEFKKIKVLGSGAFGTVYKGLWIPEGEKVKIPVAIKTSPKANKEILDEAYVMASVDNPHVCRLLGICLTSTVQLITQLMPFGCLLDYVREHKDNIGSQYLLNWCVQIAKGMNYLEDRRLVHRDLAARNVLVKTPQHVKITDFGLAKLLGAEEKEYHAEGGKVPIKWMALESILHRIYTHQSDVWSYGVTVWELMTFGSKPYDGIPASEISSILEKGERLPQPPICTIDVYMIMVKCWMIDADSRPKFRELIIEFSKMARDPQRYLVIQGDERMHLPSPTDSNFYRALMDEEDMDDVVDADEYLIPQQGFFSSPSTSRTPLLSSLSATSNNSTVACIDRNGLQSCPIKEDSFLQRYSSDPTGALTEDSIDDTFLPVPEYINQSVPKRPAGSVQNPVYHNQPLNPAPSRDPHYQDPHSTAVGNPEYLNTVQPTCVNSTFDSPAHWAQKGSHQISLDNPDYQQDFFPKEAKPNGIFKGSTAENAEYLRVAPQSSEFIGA
T1 sequence (P00533 25-1210): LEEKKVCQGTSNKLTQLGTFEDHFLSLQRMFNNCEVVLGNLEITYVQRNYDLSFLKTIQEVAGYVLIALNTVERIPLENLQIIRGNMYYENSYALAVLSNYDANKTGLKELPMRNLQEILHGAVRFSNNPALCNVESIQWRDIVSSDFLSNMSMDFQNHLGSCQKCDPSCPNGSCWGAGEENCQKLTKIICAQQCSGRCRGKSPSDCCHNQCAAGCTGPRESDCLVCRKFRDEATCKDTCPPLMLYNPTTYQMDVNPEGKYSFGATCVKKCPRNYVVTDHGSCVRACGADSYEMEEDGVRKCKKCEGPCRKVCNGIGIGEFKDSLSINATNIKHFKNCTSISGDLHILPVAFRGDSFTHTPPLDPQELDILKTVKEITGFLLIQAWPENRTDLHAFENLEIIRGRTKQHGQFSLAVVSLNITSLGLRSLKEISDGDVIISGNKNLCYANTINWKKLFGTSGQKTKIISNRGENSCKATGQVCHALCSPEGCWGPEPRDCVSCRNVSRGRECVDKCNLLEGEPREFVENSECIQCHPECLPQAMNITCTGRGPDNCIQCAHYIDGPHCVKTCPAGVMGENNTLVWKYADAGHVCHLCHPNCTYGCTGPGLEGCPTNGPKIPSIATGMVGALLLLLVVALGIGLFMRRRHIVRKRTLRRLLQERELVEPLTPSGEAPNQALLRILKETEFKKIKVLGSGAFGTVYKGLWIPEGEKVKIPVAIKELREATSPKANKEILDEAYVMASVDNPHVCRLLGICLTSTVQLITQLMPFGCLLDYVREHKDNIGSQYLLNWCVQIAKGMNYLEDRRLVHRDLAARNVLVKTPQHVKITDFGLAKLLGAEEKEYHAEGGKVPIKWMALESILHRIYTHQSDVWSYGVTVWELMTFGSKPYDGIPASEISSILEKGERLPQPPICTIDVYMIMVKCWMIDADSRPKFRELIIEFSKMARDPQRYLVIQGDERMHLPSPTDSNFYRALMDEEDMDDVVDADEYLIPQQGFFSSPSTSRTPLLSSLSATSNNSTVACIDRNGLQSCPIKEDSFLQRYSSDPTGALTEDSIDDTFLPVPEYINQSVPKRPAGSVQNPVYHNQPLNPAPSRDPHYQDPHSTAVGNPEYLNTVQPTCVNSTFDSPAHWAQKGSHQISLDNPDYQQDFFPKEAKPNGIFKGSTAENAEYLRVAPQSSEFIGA

| SMILES | DC50 [1] [µM] | Dmax [1] [%] | DTC Dmax (%) [2] [%] | DC50 [2] [nM] | Dmax [3] [%] | DC50 [3] [nM] | DC50 [4] [nM] | Dmax [4] [%] | DC50 [5] [nM] | Dmax [5] [%] |
| --- | --- | --- | --- | --- | --- | --- | --- | --- | --- | --- |
| CP(C)(=O)c1c(Nc2nc(Nc3ccc(N4CCN(C5CN(CC6CN(c7ccc8c(c7)C(=O)N(C7CCC(=O)NC7=O)C8=O)C6)C5)CC4)c(F)c3)ncc2Br)ccc2nccnc12 (stereo not shown) [Example 259, 5-(3-((3-(4-(4-((5-bromo-4-((5-(dimethylphosphoryl)quinoxalin-6-yl)amino)pyrimidin-2-yl)amino)-2-fluorophenyl)piperazin-1-yl)azetidin-1-yl)methyl)azetidin-1-yl)-2-(2,6-dioxopiperidin-3-yl)isoindoline-1,3-dione] | > 10 | 11.7 | 95.97 | 3.72 | 92.1 | 7.04 | 4.69 | 99.9 | 5.33 | 81 |
| CCc1cc(Nc2ncc(Br)c(Nc3ccc4nccnc4c3P(C)(C)=O)n2)c(OC)cc1N1CCC(N2CCN(CC3CCN(c4ccc5c(c4)C(=O)N(C4CCC(=O)NC4=O)C5=O)CC3)CC2)CC1 (stereo not shown) [Example 272, 5-(4-((4-(1-(4-((5-bromo-4-((5-(dimethylphosphoryl)quinoxalin-6-yl)amino)pyrimidin-2-yl)amino)-2-ethyl-5-methoxyphenyl)piperidin-4-yl)piperazin-1-yl)methyl)piperidin-1-yl)-2-(2,6-dioxopiperidin-3-yl)isoindoline-1,3-dione] | > 10 | 12.1 | 91.58 | 21.9 | 90.9 | 35.6 | 10.5 | 75 | 5.35 | 86.2 |
| CCc1cc(Nc2ncc(Br)c(Nc3ccc4nccnc4c3P(C)(C)=O)n2)c(OC)cc1N1CCC(N2CCN(CCc3ccc(C4CCC(=O)NC4=O)c(F)c3)CC2)CC1 (stereo not shown) [Example 5, 3-(4-(2-(4-(1-(4-((5-bromo-4-((5-(dimethylphosphoryl)quinoxalin-6-yl)amino)pyrimidin-2-yl)amino)-2-ethyl-5-methoxyphenyl)piperidin-4-yl)piperazin-1-yl)ethyl)-2-fluorophenyl)piperidine-2,6-dione] | > 10 | 47.9 | 96.75 | 4.96 | 90.4 | 13.1 | 4.66 | 84.1 | 2.56 | 83.9 |
| CCc1cc(Nc2ncc(Br)c(Nc3ccc4nccnc4c3P(C)(C)=O)n2)c(OC)cc1N1CCC(N2CCN(CCc3ccc(NC4CCC(=O)NC4=O)cc3)CC2)CC1 (stereo not shown) [Example 48, 3-((4-(2-(4-(1-(4-((5-bromo-4-((5-(dimethylphosphoryl)quinoxalin-6-yl)amino)pyrimidin-2-yl)amino)-2-ethyl-5-methoxyphenyl)piperidin-4-yl)piperazin-1-yl)ethyl)phenyl)amino)piperidine-2,6-dione] | 2.92 | 52.6 | 92.6 | 7.6 | 90.4 | 24.3 | 9.23 | 64.5 | 4.42 | 76.6 |
| CP(C)(=O)c1c(Nc2nc(Nc3ccc(N4CCN(C5CN(CCC6CCN(c7ccc(C8CCC(=O)NC8=O)c(F)c7)CC6)C5)CC4)c(F)c3)ncc2Br)ccc2nccnc12 (stereo not shown) [Example 203, 3-(4-(4-(2-(3-(4-(4-((5-bromo-4-((5-(dimethylphosphoryl)quinoxalin-6-yl)amino)pyrimidin-2-yl)amino)-2-fluorophenyl)piperazin-1-yl)azetidin-1-yl)ethyl)piperidin-1-yl)-2-fluorophenyl)piperidine-2,6-dione] | > 10 | 35.3 | 92.4 | 13.5 | 82.1 | 17 | 7.24 | 95.8 | 9.06 | 89.9 |
| CCc1cc(Nc2ncc(Br)c(Nc3ccc4nccnc4c3P(C)(C)=O)n2)c(OC)cc1N1CCC(N2CCN(CCCCCc3ccc(C4CCC(=O)NC4=O)cc3)CC2)CC1 (stereo not shown) [Example 7, 3-(4-(5-(4-(1-(4-((5-bromo-4-((5-(dimethylphosphoryl)quinoxalin-6-yl)amino)pyrimidin-2-yl)amino)-2-ethyl-5-methoxyphenyl)piperidin-4-yl)piperazin-1-yl)pentyl)phenyl)piperidine-2,6-dione] | > 10 | 41.9 | 95.15 | 18.2 | 90.5 | 36.4 | > 156 | 49 | 3.95 | 74.3 |
| CCc1cc(Nc2ncc(Br)c(Nc3ccc4nccnc4c3P(C)(C)=O)n2)c(OC)cc1N1CCC(N2CCN(CCCN3CCN(c4ccc5c(c4)C(=O)N(C4CCC(=O)NC4=O)C5=O)CC3)CC2)CC1 (stereo not shown) [Example 60, 5-(4-(3-(4-(1-(4-((5-bromo-4-((5-(dimethylphosphoryl)quinoxalin-6-yl)amino)pyrimidin-2-yl)amino)-2-ethyl-5-methoxyphenyl)piperidin-4-yl)piperazin-1-yl)propyl)piperazin-1-yl)-2-(2,6-dioxopiperidin-3-yl)isoindoline-1,3-dione] | 8.86 | 51.6 | 94.93 | 42.2 | 91.2 | 89 | 16.5 | 73.4 | 4.8 | 86.8 |
